Laboratory results from patent US10772846B2, “Methods and compositions for treating and preventing arthritis” (Montefiore Medical Center, priority 2014, dated 2020).

What was measured:
DMM mice (C57BL/6) [1] = test: Tactile sensitivity testing (von Frey) in DMM OA mice; format: in vivo; conditions: oral administration, 8 weeks, summary over von Frey and open field tests
Method: Mice were acclimated for 30 minutes in individual chambers on top of a wire grid platform prior to von Frey testing. The plantar surface of the hind paw was stimulated with ascending force intensities of von Frey filaments (Stoelting) to determine tactile sensitivity. A positive response was defined as a rapid withdrawal of the hind paw when the stimulus was applied, and the number of positive responses for each stimulus was recorded. Tactile threshold was defined as a withdrawal response in 5 out of 10 trials to a given stimulus intensity (38). This threshold was calculated once per animal.
To determine pain relief, three animal behavior assessments were used: 1) von Frey, which determined sensitivity to mechanical stimuli [OA animals tend to have lower thresholds of pain to mechanical stimuli]; 2) distance traveled—a measure of joint movement [OA animals tend to move a lesser distance compared to non-OA animals]; 3) rearing—a measure of joint function [OA animals tend to rear, or stand up on their hind limbs less than non-OA animals].

DMM mice (C57BL/6) [2] = test: Slowing progression of OA in DMM post-traumatic OA mouse model (Safranin O staining, OARSI score); format: in vivo; conditions: for cartilage damage (fibrillation, erosion, loss of aggrecans) by Safranin O staining: oral daily for 8 weeks; for mean OARSI score ± standard deviation: oral gavage daily for 8 weeks, Carvacrol 50 mg/kg, Curcumin 50 mg/kg, EGCG 5 mg/kg, OPC 50 mg/kg or combination, score 0 healthy to 6 severe erosion, 8 animals/group
From the text: Induction of osteoarthritis in mice. All studies were approved by the Albert Einstein College of Medicine Institutional Animal Care and Use Committee. Destabilization of the medial meniscus (DMM) was established in adult C57BL/6 mice (male, 5-6 months) by surgically transecting the medial meniscotibial ligament (MMTL) in the right hind limb (36). Briefly, the joint capsule immediately medial to the patellar tendon was incised, followed by blunt dissection of the fat pad, to provide visualization of the MMTL of the medial meniscus. The MMTL was transected, leading to DMM. In the sham surgery, the MMTL was visualized but not transected. The joint capsule and skin were closed with suture.
Animals were euthanized, hindlimbs were fixed in formalin, decalcified in formic acid, embedded in paraffin and sectioned for histology and immunohistochemistry. Sections were incubated overnight at 4° C. with antibodies against cleaved aggrecan (NITEGE, Ibex) and cleaved type II collagen (Col2-3/4M, Ibex), MMP-13 (Abcam), and ADAMTS5 (Abcam) followed by incubation with anti-mouse or anti-rabbit secondary antibody (Biocare Medical) and visualization with DAB chromagen (Vector Laboratories). Negative controls were stained with irrelevant isotype-matched antibodies (Biocare Medical). Safranin O-fast green staining was used to visualize proteoglycans in the articular cartilage. Severity of OA was evaluated for each mouse using the Osteoarthritis Research Society International (OARSI) scoring system (34) Immunostaining intensity for type II collagen or aggrecan cleavage epitopes was quantified by determining the “reciprocal intensity” of the stained articular cartilage matrix. Briefly, the light intensity value of random locations within azones from the posterior to anterior direction of the femoral and tibial condyles was measured using the color picker in Adobe Photoshop (37). Percentages of positive MMP-13 and ADAMTS5 chondrocytes were determined by counting the number of immunostained cells and dividing by the total number of chondrocytes visualized by a hematoxylin counterstain (Vector Laboratories).
To determine the efficacy of the C′-CEO formulation in slowing progression of OA in vivo, a well-established post-traumatic mouse model of OA was used. These OA mice were orally administered C′-CEO, individual compounds, or placebo daily. Severity of OA was evaluated 8 weeks after induction of OA, using a well-established and FDA recommended cartilage integrity stain, Safranin O, and a semi-quantitative Osteoarthritis Research Society International (OARSI) scoring system. Furthermore, the efficacy of the C′-CEO formulation was validated by examining the level of breakdown of two major cartilage matrix proteins, type II collagen and aggrecan, as cartilage degradation is a hallmark of OA. It was further examined how the C′-CEO formulation may have such effect by targeting CITED2 by examining CITED2 expression in the articular cartilage of these OA mice.
All studies were approved by the Albert Einstein College of Medicine Institutional Animal Care and Use Committee. Destabilization of the medial meniscus (DMM) was established in adult C57BL/6 mice (male, 5-6 months) by surgically transecting the medial meniscotibial ligament (MMTL) in the right hind limb Immediately after surgery, mice were administered either carvacrol (C′), curcumin (C), EGCG (E), OPC(O), C′-CEO, or vehicle control for 8 weeks. At 8 weeks following surgery, animals were euthanized, the hindlimbs were fixed in formalin, decalcified in formic acid, embedded in paraffin and sectioned for histology. Safranin O, a well-stablished cartilage stain, was used to visualize integrity of the articular cartilage and aggrecans in the articular cartilage. Severity of OA was evaluated using the OARSI scoring system.

Compound	pain relief of OA-associated pain (overall: mechanical sensitivity, joint movement and function) (DMM mice (C57BL/6) [1])	cartilage damage (fibrillation, erosion, loss of aggrecans) by Safranin O staining (DMM mice (C57BL/6) [2])	mean OARSI score ± standard deviation (DMM mice (C57BL/6) [2])
Cc1ccc(C(C)C)cc1O [Carvacrol]	did not result in a statistical improvement in pain relief	some reduction in cartilage degradation	2.9 ± 0.45
COc1cc(/C=C/C(=O)CC(=O)/C=C/c2ccc(O)c(OC)c2)ccc1O [Curcumin]	did not result in a statistical improvement in pain relief	some reduction in cartilage degradation	2.4 ± 0.42
Epigallocatechin-3-gallate [EGCG]	did not result in a statistical improvement in pain relief	some reduction in cartilage degradation	2.1 ± 0.29
